System: cholesterol concentration in the blood
Experiment: Blood cholesterol reduction in rats fed a cholesterol/sodium cholate diet
Format: in vivo
Settings: male rats, diet with 1% cholesterol and 0.25% sodium cholate for 3 days, control group = 0, normal group = 100
Description: A completely synthetic diet containing 1% of cholesterol, 0.25% of sodium cholate and 0.003%, 0.01%, 0.03% and 0.1% of the test compound is given to a group of 6 male rats having a body weight of about 50 g consecutively for 3 days, and the rats are fasted overnight. Then, the rats are decapitated and their blood collected to determine the cholesterol concentration in the blood. The concentration of cholesterol in the blood is measured with Technicon Autoanalyzer (Technicon Laboratory: Method File N-24a).
Each value shown in the Table is a relative value determined based on the supposition that the value of the control group (the cholesterol-administered group) is 0 and the value of the normal group (the non-cholesterol-administered group) is 100.

CC(C)C1CCC2=C(CCC3C(C)(C(=O)Nc4ccccc4)CCCC23C)C1 (stereo not shown) [Δ^8 -Dihydroabietanilide]
% Inhibition (dose in diet 0.003%): 18%
% Inhibition (dose in diet 0.01%): 22%
% Inhibition (dose in diet 0.03%, * significant at 1% level): 56%
% Inhibition (dose in diet 0.1%, * significant at 1% level): 93%
